This is an account of results in PubChem BioAssay (NCI).

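A five-concentration, 48-hour dose response in 96-well plates underlies each endpoint, interpolated linearly between surrounding concentrations. Definition used: TGI = concentration required for complete inhibition of growth.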

Some test systems named below: CCRF-CEM leukemia; HOP-92 NSCLC; HT29 colon; KM20L2 colon; MALME-3M melanoma; NCI-H460 lung; OVCAR-3 ovarian; OVCAR-4 ovarian; SK-MEL-5 melanoma; SNB-19 CNS; SNB-75 CNS; SW-620 colon; UACC-257 melanoma; UO-31 renal; SK-OV-3 ovarian; BT-549 breast; MCF7 breast; MDA-MB-231 breast; MDA-MB-435; NCI/ADR-RES ovarian.
Common to all, as to experiment: NCI anticancer screen, dose series, 48 h

In the case of `COc1ccc(NC(=O)CC(=O)N2N=C(N(CCC#N)c3ccccc3Cl)CC2c2ccccc2)cc1` (stereo not drawn), the TGI with CCRF-CEM leukemia, in the assay on HOP-92 NSCLC, with HT29 colon, in the assay with KM20L2 colon, in the assay on MALME-3M melanoma and with NCI-H460 lung was more than 100 µM in each case. Besides, the TGI in the assay on OVCAR-3 ovarian, with OVCAR-4 ovarian, in the assay on SK-MEL-5 melanoma, with SNB-19 CNS, with SNB-75 CNS and in the assay with SW-620 colon was more than 100 µM throughout. Further, the TGI with UACC-257 melanoma and with UO-31 renal was more than 100 µM in each case.

For `Nc1nc(NCCO)c(N=O)c(=O)[nH]1`, the TGI in the assay on CCRF-CEM leukemia, in the assay on HOP-92 NSCLC, in the assay with HT29 colon, in the assay with KM20L2 colon, in the assay with MALME-3M melanoma and in the assay on NCI-H460 lung was more than 100 µM each time. The TGI with OVCAR-3 ovarian, with OVCAR-4 ovarian, in the assay with SK-MEL-5 melanoma, with SK-OV-3 ovarian, with SNB-75 CNS and with SW-620 colon was more than 100 µM in each case. The TGI with UACC-257 melanoma and in the assay with UO-31 renal was more than 100 µM throughout.

Take `NC(=O)C#CC#CC#CCO`: the TGI with HOP-92 NSCLC stood at 3.83 µM; in the assay on HT29 colon it was 4.04 µM; with KM20L2 colon, 27.3 µM; in the assay with MALME-3M melanoma, 3.72 µM; in the assay on NCI-H460 lung, 19.3 µM; in the assay on OVCAR-3 ovarian it was 3.49 µM. In addition, the TGI was determined as 3.53 µM in the assay with OVCAR-4 ovarian; 3.78 µM with SK-MEL-5 melanoma; 25.5 µM with SK-OV-3 ovarian; 29.6 µM with SNB-19 CNS; 3.33 µM in the assay on SW-620 colon; 5.87 µM in the assay on UACC-257 melanoma. For the same molecule, the TGI with UO-31 renal worked out at 3.68 µM.

Turning to `O=Cc1c2ccccc2n2ccc3c4ccccc4[nH]c3c12`, the TGI in the assay with BT-549 breast, with CCRF-CEM leukemia, in the assay with HOP-92 NSCLC, with HT29 colon, in the assay with MALME-3M melanoma and in the assay on MCF7 breast was more than 10 µM in each case. The TGI in the assay with MDA-MB-231 breast, with MDA-MB-435, with NCI-H460 lung, with NCI/ADR-RES ovarian, in the assay with OVCAR-3 ovarian and with OVCAR-4 ovarian was more than 10 µM each time. Besides, the TGI with SK-MEL-5 melanoma, with SK-OV-3 ovarian, in the assay on SNB-19 CNS, in the assay on SNB-75 CNS, in the assay with SW-620 colon and in the assay on UACC-257 melanoma was more than 10 µM throughout. The same molecule returned a TGI in the assay on UO-31 renal of more than 10 µM.

For the molecule `CN(C)Cc1cc(N=Nc2cccc(Cl)c2)ccc1O`, the TGI in the assay with BT-549 breast stood at 34 µM; with CCRF-CEM leukemia it was 36.3 µM; in the assay with HOP-92 NSCLC, 41 µM; with HT29 colon, 33.7 µM; in the assay on MALME-3M melanoma, 31.6 µM; with MCF7 breast, 29 µM. In addition, the TGI in the assay on MDA-MB-231 breast turned out to be 36.7 µM; with MDA-MB-435 it was 15.8 µM; in the assay with NCI-H460 lung, 26.4 µM; in the assay with NCI/ADR-RES ovarian, 22.4 µM; with OVCAR-3 ovarian it was 28.9 µM; with OVCAR-4 ovarian it was 34.7 µM. For the same molecule, the TGI was 14.2 µM in the assay with SK-MEL-5 melanoma; 37.9 µM in the assay with SK-OV-3 ovarian; 51.3 µM in the assay with SNB-19 CNS; 39.1 µM in the assay on SNB-75 CNS; 23.7 µM in the assay on SW-620 colon; 29.3 µM in the assay on UACC-257 melanoma. For the same molecule, the TGI in the assay with UO-31 renal came to 23.3 µM.

For `N#CC(/C(=N/NC(=O)C(=O)NN)C(=O)Nc1nc([N+](=O)[O-])cs1)c1ccc(Cl)cc1` (stereo not drawn), the TGI in the assay on CCRF-CEM leukemia, in the assay on HOP-92 NSCLC, in the assay on HT29 colon, in the assay with KM20L2 colon, in the assay on MALME-3M melanoma and in the assay on NCI-H460 lung was more than 100 µM each time. Moreover, the TGI in the assay with OVCAR-3 ovarian, with OVCAR-4 ovarian, with SK-MEL-5 melanoma, with SNB-19 CNS, in the assay with SNB-75 CNS and in the assay on SW-620 colon was more than 100 µM throughout. In addition, the TGI in the assay on UACC-257 melanoma and with UO-31 renal was more than 100 µM in each case.

As to `CCOCN1COCN=C1NC#N`, the TGI in the assay with HOP-92 NSCLC, in the assay with HT29 colon, in the assay with KM20L2 colon, in the assay with MALME-3M melanoma, in the assay with NCI-H460 lung and in the assay on OVCAR-3 ovarian was more than 100 µM throughout. For the same molecule, the TGI in the assay with OVCAR-4 ovarian was more than 100 µM; in the assay on SK-MEL-5 melanoma, more than 100 µM; with SK-OV-3 ovarian, more than 100 µM; with SNB-19 CNS it was more than 100 µM; in the assay on SNB-75 CNS, more than 100 µM; with SW-620 colon, 35.3 µM. For the same molecule, the TGI in the assay with UACC-257 melanoma and in the assay with UO-31 renal was more than 100 µM in each case.

Turning to `COc1ccc2c(c1)C(=O)N1CCOC1C2C(=O)O` (stereo not drawn), the TGI with CCRF-CEM leukemia, in the assay on HOP-92 NSCLC, in the assay on HT29 colon, with KM20L2 colon, in the assay with NCI-H460 lung and with OVCAR-3 ovarian was more than 100 µM each time. The TGI in the assay with OVCAR-4 ovarian, with SK-MEL-5 melanoma, in the assay on SK-OV-3 ovarian, with SNB-19 CNS, in the assay on SNB-75 CNS and in the assay with SW-620 colon was more than 100 µM in each case. Moreover, the TGI in the assay on UACC-257 melanoma and in the assay with UO-31 renal was more than 100 µM throughout.

For the molecule `Nc1ccc2nc(NCc3ccc(F)cc3)cnc2c1`, the TGI in the assay with CCRF-CEM leukemia, in the assay on HT29 colon, with KM20L2 colon, in the assay on MALME-3M melanoma, in the assay on NCI-H460 lung and in the assay on OVCAR-3 ovarian was more than 100 µM in each case. For the same molecule, the TGI with OVCAR-4 ovarian, in the assay with SK-MEL-5 melanoma, in the assay with SNB-19 CNS, with SNB-75 CNS, in the assay on SW-620 colon and with UO-31 renal was more than 100 µM in each case.
